This is an account of results in paper PMC10035951, “Selenium-analogs based on natural sources as cancer-associated carbonic anhydrase isoforms IX and XII inhibitors” (Journal of Enzyme Inhibition and Medicinal Chemistry, 2023).

One assay has as its target T1, hCA I (Homo sapiens, UniProt P00915).
T1 construct: made in house
Put plainly: CA catalysed CO2 hydration, stopped-flow inhibition. In kind it is biochemical. As to the method:
(§1) The uncatalyzed rates were determined in the same manner and subtracted from the total observed rates. Stock solutions of inhibitor (0.1 mM) were prepared in distilled − deionized water and dilutions up to 0.01 nM were done thereafter with the assay buffer. Inhibitor and enzyme solutions were preincubated together for 15 min at room temperature before assay to allow for the formation of the E − I complex. The inhibition constants were obtained by nonlinear least-squares methods using PRISM 3 and the Cheng − Prusoff equation, as reported earlier,[39]^,[40] and represent the mean from at least three different determinations. […] All human CA (hCA) isoforms were recombinant ones obtained in-house as reported earlier.[41]^,[42]

The next assay addresses T2, hCA II (Homo sapiens, UniProt P00918).
T2 construct: made in house
Described as above. In kind it is biochemical. As to the method: as §1

For another assay, the target named is T3, hCA IX (Homo sapiens, UniProt Q16790).
T3 construct: made in house
The description is as above. In kind it is biochemical. To be noted: for Ki: recombinant hCA IX, stopped-flow CO2 hydration, 15 min preincubation. As to the method: as §1

In the next assay the target is T4, hCA XII (Homo sapiens, UniProt O43570).
T4 construct: made in house
The description is as above. In kind it is biochemical. As to the method:
An Applied Photophysics stopped-flow instrument has been used for assaying the CA catalysed CO2 hydration activity.[38] Phenol red (at a concentration of 0.2 mM) has been used as an indicator, working at the absorbance maximum of 557 nm, with 20 mM Hepes (pH 7.5) as a buffer and 20 mM Na2SO4 (for maintaining constant the ionic strength), following the initial rates of the CA-catalysed CO2 hydration reaction for a period of 10–100 s. The CO2 concentrations ranged from 1.7 to 17 mM for the determination of the kinetic parameters and inhibition constants. […]. The uncatalyzed rates were determined in the same manner and subtracted from the total observed rates. Stock solutions of inhibitor (0.1 mM) were prepared in distilled − deionized water and dilutions up to 0.01 nM were done thereafter with the assay buffer. Inhibitor and enzyme solutions were preincubated together for 15 min at room temperature before assay to allow for the formation of the E − I complex. The inhibition constants were obtained by nonlinear least-squares methods using PRISM 3 and the Cheng − Prusoff equation, as reported earlier,[39]^,[40] and represent the mean from at least three different determinations. The enzyme concentrations were in the range 3–11 nM. All human CA (hCA) isoforms were recombinant ones obtained in-house as reported earlier.[41]^,[42]

Assay [1] has as its system hCA isoforms I, II, VA, IX, and XII. Put plainly: CA inhibition, summary statements over all tested isoforms. In kind it is biochemical, human. To be noted: for isoform selectivity (in words): from the Ki values of Table 1; for Ki: all CA isoforms tested for series b, read-out: Ki range over all CA isoforms. As to the method: An Applied Photophysics stopped-flow instrument has been used for assaying the CA catalysed CO2 hydration activity.[38] Phenol red (at a concentration of 0.2 mM) has been used as an indicator, working at the absorbance maximum of 557 nm, with 20 mM Hepes (pH 7.5) as a buffer and 20 mM Na2SO4 (for maintaining constant the ionic strength), following the initial rates of the CA-catalysed CO2 hydration reaction for a period of 10–100 s. The CO2 concentrations ranged from 1.7 to 17 mM for the determination of the kinetic parameters and inhibition constants. For each inhibitor, at least six traces of the initial 5 − 10% of the reaction have been used for determining the initial velocity. The uncatalyzed rates were determined in the same manner and subtracted from the total observed rates. Stock solutions of inhibitor (0.1 mM) were prepared in distilled − deionized water and dilutions up to 0.01 nM were done thereafter with the assay buffer. Inhibitor and enzyme solutions were preincubated together for 15 min at room temperature before assay to allow for the formation of the E − I complex. The inhibition constants were obtained by nonlinear least-squares methods using PRISM 3 and the Cheng − Prusoff equation, as reported earlier,[39]^,[40] and represent the mean from at least three different determinations. The enzyme concentrations were in the range 3–11 nM. All human CA (hCA) isoforms were recombinant ones obtained in-house as reported earlier.[41]^,[42]

Setting [2] is: recombinant hCA I, stopped-flow CO2 hydration, 15 min preincubation, read-out: Ki hCA I.
Where [3] appears, read: recombinant hCA II, stopped-flow CO2 hydration, 15 min preincubation, read-out: Ki hCA II.
The mark [4] stands for this setting: recombinant hCA XII, stopped-flow CO2 hydration, 15 min preincubation, read-out: Ki hCA XII.

Read-outs that look alike come from different tables or passages of the source.

T4 sequence (O43570 25-354): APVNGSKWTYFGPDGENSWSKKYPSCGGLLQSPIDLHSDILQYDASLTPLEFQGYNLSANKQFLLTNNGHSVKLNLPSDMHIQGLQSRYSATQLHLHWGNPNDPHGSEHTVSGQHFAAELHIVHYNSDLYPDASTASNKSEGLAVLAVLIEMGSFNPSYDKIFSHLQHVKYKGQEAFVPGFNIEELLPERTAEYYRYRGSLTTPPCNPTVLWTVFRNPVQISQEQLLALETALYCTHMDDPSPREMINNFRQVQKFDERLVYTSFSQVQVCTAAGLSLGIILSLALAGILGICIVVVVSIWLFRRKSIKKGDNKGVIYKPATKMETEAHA
T1 sequence (P00915 whole entry): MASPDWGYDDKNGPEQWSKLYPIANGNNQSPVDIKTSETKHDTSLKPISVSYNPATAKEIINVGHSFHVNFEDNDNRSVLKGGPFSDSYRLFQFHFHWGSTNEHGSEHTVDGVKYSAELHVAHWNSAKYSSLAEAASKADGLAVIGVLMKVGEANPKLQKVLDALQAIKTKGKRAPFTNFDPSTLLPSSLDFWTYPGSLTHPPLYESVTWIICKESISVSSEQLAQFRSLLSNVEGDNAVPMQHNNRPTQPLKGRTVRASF

In the case of `C=CC[Se]C(=O)C12CC3CC(CC(C3)C1)C2` [Compound 1a], the Ki on hCA I (setting [2]), on hCA II (setting [3]) and on hCA IX was over 100 µM throughout.

As for `C#CC[Se]C(=O)C12CC3CC(CC(C3)C1)C2` [Compound 1b], the Ki (usually the equilibrium dissociation constant of an inhibitor or competing ligand from its target) at hCA I (setting [2]) was over 100 µM; at hCA II (setting [3]) it was over 100 µM; on hCA IX it was 9.1 µM; at hCA XII (setting [4]) it was 28.4 µM. Also, in assay [1], the “isoform selectivity (in words)” value was “selectivity for tumour-associated isoforms IX and XII”.

For the molecule `C=CC[Se]C(=O)c1ccccc1` [Compound 2a], the inhibition constant Ki on hCA I (setting [2]), at hCA II (setting [3]) and at hCA IX was over 100 µM throughout.

For `C#CC[Se]C(=O)c1ccccc1` [Compound 2b], the inhibition constant (Ki) on hCA I (setting [2]) is 80.5 µM; at hCA II (setting [3]), over 100 µM; at hCA IX, 7.8 µM; on hCA XII (setting [4]) it was 55.7 µM. Also, the “times higher inhibition of CA IX than of isoform I” value at hCA IX (CA IX versus CA I) was about 13 times. The “times higher inhibition of CA IX than of isoform II” value at hCA IX (CA IX versus CA II) is about 10 times.

Regarding `C=CC[Se]C(=O)c1ccccc1Cl` [Compound 3a], the Ki on hCA I (setting [2]), at hCA II (setting [3]) and on hCA IX was over 100 µM throughout.

For the molecule `C#CC[Se]C(=O)c1ccccc1Cl` [Compound 3b], the inhibition constant (Ki) on hCA I is 42.1 µM; at hCA II, over 100 µM; at hCA IX, 41.6 µM; on hCA XII it was 28.8 µM.

Regarding `C#CC[Se]C(=O)c1ccc2c(c1)OCO2` [Compound 4b], the inhibition constant (Ki) on hCA I (setting [2]) was 31.3 µM; on hCA II (setting [3]) it was 53.5 µM; on hCA IX, 67.7 µM; at hCA XII (setting [4]), over 100 µM.

Consider `C=CC[Se]C(=O)C=Cc1ccccc1` [Compound 5a], for which the Ki at hCA I (setting [2]), on hCA II (setting [3]) and on hCA IX was over 100 µM throughout.

`C#CC[Se]C(=O)C=Cc1ccccc1` [Compound 5b]: the inhibition constant Ki at hCA I (setting [2]) was 24.1 µM; on hCA II (setting [3]), 42.7 µM; on hCA IX, 79.3 µM; on hCA XII (setting [4]), over 100 µM.

As for `C#CC[Se]C(=O)CCc1ccccc1` [Compound 6b], the inhibition constant (Ki) was 3.1 µM on hCA I; 9.5 µM at hCA II; 25 µM on hCA IX; 7 µM on hCA XII; 2.2 to 48.5 µM in assay [1]. Moreover, at hCA I (CA I, Ki ratio versus 2b), the “times more potent than analog without the spacer (2b)” value is 26 times. Also, the “times more potent than analog with the double-bond spacer (5b)” value at hCA I (CA I, Ki ratio versus 5b) worked out at 7.7 times.

As for `C=CC[Se]C(=O)c1cccnc1` [Compound 7a], the inhibitory constant (Ki) on hCA I (setting [2]), on hCA II (setting [3]) and at hCA IX was over 100 µM in each case.

For `C#CC[Se]C(=O)c1cccnc1` [Compound 7b], the Ki stood at 30.2 µM at hCA I (setting [2]), 66.3 µM at hCA II (setting [3]), 38.2 µM at hCA IX and 85.1 µM at hCA XII (setting [4]).

Turning to `C=CC[Se]C(=O)c1cccnc1Cl` [Compound 8a], the Ki at hCA I (setting [2]) is over 100 µM; on hCA II (setting [3]), over 100 µM; on hCA IX it was 89.4 µM.

In the case of `C#CC[Se]C(=O)c1cccnc1Cl` [Compound 8b], the “increase of inhibitory activity compared to unsubstituted pyridine” value on hCA I (CA I, Ki ratio versus 7b) turned out to be 13.7 times. For the same molecule, the Ki at hCA I (setting [2]) was 2.2 µM; on hCA II (setting [3]), 8.6 µM; at hCA IX, 48.5 µM; on hCA XII (setting [4]), 9.6 µM; in assay [1] it was 2.2 to 48.5 µM.

As for `C=CC[Se]C(=O)c1cccs1` [Compound 9a], the Ki on hCA I (setting [2]), at hCA II (setting [3]) and on hCA IX was over 100 µM each time.

`C#CC[Se]C(=O)c1cccs1` [Compound 9b]: the inhibitory constant (Ki) on hCA I (setting [2]) was 9.2 µM; at hCA II (setting [3]) it was 46.6 µM; on hCA IX, over 100 µM; at hCA XII (setting [4]) it was 97 µM.

For the molecule `C=CC[Se]C(=O)c1sccc1Cl` [Compound 10a], the Ki on hCA I (setting [2]), on hCA II (setting [3]) and at hCA IX was over 100 µM in each case.

For the molecule `C#CC[Se]C(=O)c1sccc1Cl` [Compound 10b], the Ki is over 100 µM on hCA I (setting [2]), 88.5 µM on hCA II (setting [3]), over 100 µM at hCA IX and 98.5 µM at hCA XII (setting [4]).

In the case of `C=CC[Se]C(=O)c1ccco1` [Compound 11a], the Ki on hCA I (setting [2]), at hCA II (setting [3]) and at hCA IX was over 100 µM throughout.

In the case of `C#CC[Se]C(=O)c1ccco1` [Compound 11b], the inhibition constant (Ki) on hCA I (setting [2]) was found to be 8.5 µM; at hCA II (setting [3]), 49.9 µM; on hCA IX it was 7.1 µM; on hCA XII (setting [4]) it was 59.6 µM.

`C=CC[Se]C(=O)c1ccno1` [Compound 12a]: the Ki on hCA I (setting [2]), on hCA II (setting [3]) and on hCA IX was over 100 µM in each case.

In the case of `C#CC[Se]C(=O)c1ccno1` [Compound 12b], on hCA I (CA I, Ki ratio versus 11b), the “decrease of inhibitory capacity on substitution of furan ring (11b) by isoxazole” value is about 7 fold. Moreover, the Ki was 58.4 µM on hCA I (setting [2]), over 100 µM at hCA II (setting [3]), 22.4 µM on hCA IX and 66.6 µM at hCA XII (setting [4]).

Take `C=CC[Se]C(=O)c1ccccc1O` [Compound 13a]: the inhibition constant Ki on hCA I (setting [2]), on hCA II (setting [3]) and at hCA IX was over 100 µM each time.

For `C#CC[Se]C(=O)c1ccccc1O` [Compound 13b], the inhibition constant (Ki) at hCA I (setting [2]) was 23.3 µM; at hCA II (setting [3]), over 100 µM; on hCA IX, 54.8 µM; on hCA XII (setting [4]) it was over 100 µM. Besides, the “isoform selectivity (in words)” value in assay [1] was “selectivity for cytosolic CA I isoform and tumour-associated CA IX”.

On to `C=CC[Se]C(=O)c1ccccc1OC(C)=O` [Compound 14a], for which the inhibition constant Ki on hCA I (setting [2]), at hCA II (setting [3]) and at hCA IX was over 100 µM throughout.

Take `C#CC[Se]C(=O)c1ccccc1OC(C)=O` [Compound 14b]: the Ki on hCA I (setting [2]) is 5 µM; at hCA II (setting [3]), 55.3 µM; at hCA IX, over 100 µM; at hCA XII (setting [4]), 89.7 µM.

For `C#CC[Se]C(=O)C(C)c1ccc(CC(C)C)cc1` (centres unmarked) [Compound 15b], the Ki is 77.1 µM on hCA I (setting [2]), over 100 µM at hCA II (setting [3]), 47.7 µM on hCA IX and over 100 µM on hCA XII (setting [4]). For the same molecule, in assay [1], the “isoform selectivity (in words)” value is “selectivity for cytosolic CA I isoform and tumour-associated CA IX”.

On to `C=CC[Se]C(=O)[C@@H](C)c1ccc2cc(OC)ccc2c1` [Compound 16a], for which the inhibition constant (Ki) on hCA I (setting [2]), on hCA II (setting [3]) and at hCA IX was over 100 µM in each case.

On to `C#CC[Se]C(=O)[C@@H](C)c1ccc2cc(OC)ccc2c1` [Compound 16b], for which the Ki on hCA I (setting [2]) is 91.5 µM; on hCA II (setting [3]), over 100 µM; on hCA IX, 24.7 µM; at hCA XII (setting [4]) it was over 100 µM. In addition, the “isoform selectivity (in words)” value in assay [1] is “selectivity for cytosolic CA I isoform and tumour-associated CA IX”.

Turning to `C#CC[Se]C(=O)Cc1c(C)n(C(=O)c2ccc(Cl)cc2)c2ccc(OC)cc12` [Compound 17b], the Ki at hCA I (setting [2]) was over 100 µM; at hCA II (setting [3]) it was over 100 µM; at hCA IX, 58.5 µM; on hCA XII (setting [4]), over 100 µM. The “isoform selectivity (in words)” value in assay [1] is reported as “selectivity for tumour-associated isoform IX”.

Consider `C#CC[Se]C(=O)c1ccccc1Nc1cccc(C)c1C` [Compound 18b], for which the Ki is over 100 µM on hCA I (setting [2]), 4.5 µM at hCA II (setting [3]), 9.6 µM on hCA IX and 46.3 µM at hCA XII (setting [4]). The “fold greater inhibition potency for CA II than for CA I” value on hCA II (CA II versus CA I) is reported as 22 fold.
